Source: patent US9266921B2, “PGC-1α-modulating peptides” (Lipotec, S.A., priority 2011, dated 2016)

Tests used:
[1] = tested on: breasts; assay: Volume of the breasts in volunteers (Fast Optical In Vivo Topometry); design: species or system human; details: treatment up to 56 days
Description: 22 Caucasian volunteers between the age of 25 and 40, with healthy skin and a bra size of between 36 C to 40 E applied the composition from Example 16 to one breast and a placebo composition (the same composition from Example 16 without the peptide) to the other breast, twice a day for 56 days. The volume of the breasts was instrumentally assessed at the beginning of the study, after 14 days and 28 days of applying the compositions and at the end of the study (56 days) using the Fast Optical In Vivo Topometry Technique, which enables the volume of the breasts to be calculated in mm^3. The volume of the breasts was normalized initially at an arbitrary value of 100,000 mm^3 and the changes in volume of the breasts was measured at the different treatment times in relation to their initial volume. The statistical analysis of the evolution of the parameters measured during the study was carried out using the Student's t-test or the Wilcoxon test. The statistical significance threshold was established at 5%.

[2] = tested on: PGC-1α gene; assay: Transcription of the PGC-1α gene, quantitative real time PCR in differentiating pre-adipocytes; format: cell-based; details: subcutaneous human adipocytes; peptide 0.1 mg/mL in PDM-2, 10 days; PGM-2 = 0%, PDM-2 = 100%
Description: The expression levels of the gene PGC-1α are measured by PCR in quantitative real time. A cell line of subcutaneous human pre-adipocytes is incubated in PGM™-2 medium at a density of 100,000 cells/well in a volume of 100 μL for 24 hours. Differentiation is induced by changing the medium to PDM-2 in the presence of the peptides Ac-L-Ser-L-Ile-L-Tyr-L-Val-L-Ala-L-Thr-NH2 (Ac-SEQ ID NO. 1-NH2) and Ac-L-Ser-L-Val-L-Val-L-Val-L-Arg-L-Thr-NH2 (Ac-SEQ ID NO. 2-NH2) at 0.1 mg/mL for 10 days, after which the cells were lysed and the RNA is extracted. The PCR is carried out in quantitative real time using the Taqman® Gene Expression Cells-to-CT (Applied Biosystems) kit according to the manufacturer's instructions and with the appropriate probes (TaqMan® Hs01016719_m1 probe for the PGC-1α gene and Taqman® Hs99999901_s1 probe for the eukaryotic ribosomal subunit 18S, the endogenous control of expression) and the values are normalized with regards to the maximum differentiation controls (PDM-2 medium, maximum quantity of PGC-1α mRNA) and minimal differentiation (PGM™-2 medium, minimum quantity of PGC-1α mRNA).

[3] = tested on: human PGC-1α promoter; assay: Modulation of the human PGC-1α promoter activity (luciferase reporter, Hep G2); format: cell-based; details: Hep G2 transfected with luciferase under human PGC-1α promoter; peptide 0.5 mg/mL, 24 hours; normalized to carrier = 100%
Description: The modulation capacity of the promoter of human PGC-1α is evaluated by the peptides in the invention in the hepatocellular Hep G2 carcinoma cell line transfected with the luciferase gene under the regulation of the human PGC-1α promoter. The cells are seeded at a density of 20,000 cells/25 cm^2 plate) and incubated for 24 hours in RPMI-1640 complete medium, after which the peptides of the invention are added at 0.5 mg/mL and are incubated for another 24 hours. The RPMI-1640 complete medium (carrier) is used as a negative control. The measurement of the promoter's activity is carried out using the Steady-Glo® Luciferase Assay System (PROMEGA) kit following the manufacturer's instructions. The luminescence values are read on a luminometer […] and the activity of the promoter is determined, which is normalized with regards to the values of the negative control.

[4] = tested on: subcutaneous human pre-adipocytes; assay: Accumulation of lipids in subcutaneous human pre-adipocytes (AdipoRed); format: cell-based; details: peptide 0.1 mg/mL in PDM-2, 10 days, PGM-2 = 0%, PDM-2 = 100%
Description: The levels of accumulation of lipids in subcutaneous human pre-adipocytes were quantified using the AdipoRed™ (Lonza) reagent. 100,000 cells were cultivated per well in PGM™-2 medium at a final volume of 100 μL. After 24 hours, the differentiation from pre-adipocytes to mature adipocytes was induced changing the medium to PDM-2 in the presence of the different peptides at 0.1 mg/mL. After 10 days of treatment with the peptides in differentiation medium, the quantity of intracellular lipids was evaluated using the AdipoRed™ reagent following the manufacturer's instructions measuring the fluorescence of the samples (length of the excitation wave 485 nm and emission 535 nm) after adding the AdipoRed™ reagent. The fluorescence values were corrected with regards to the basal fluorescence and were normalized with regards to the maximum differentiation controls (PDM-2 medium, maximum accumulation of lipids) and minimum differentiation (PGM™-2 medium, minimum accumulation of lipids).

Activity of the PGC-1α promoter (%) [3]: 114%
Substance: Ac-L-Ser-L-Val-L-Val-L-Val-L-Arg-L-Thr-NH2 (Ac-SVVVRT-NH2) [Ac-SEQ ID NO. 2-NH2]
effect on the volume of the breasts [1]: induces an increase in the volume of the breasts
% relative quantity of PGC-1α mRNA [2]: 125%
% Accumulation of intracellular lipids [4]: 128%
